Data: US20250205135A1, “COMPOSICION DE EXTRACTOS VEGETALES PARA PALIAR LOS EFECTOS DEL ENVEJECIMIENTO O RETRASO DE LA SENESCENCIA CELULAR” (MONTELOEDER S.L., priority 2022, published 2025)

Test system: normal human dermal fibroblasts (NHDF)
Assay: MTT cell proliferation assay in fibroblasts pre-aged with H2O2
Assay type: cell-based
Details: EGF 20 ng/ml positive control, after 3 hours H2O2 (500 μM)
Method: For the cell proliferation assay, normal human dermal fibroblasts (NHDF) were exposed for 3 hours to conditioned ageing medium containing H2O2 (500 μM). After the incubation period, the medium was replaced with fresh medium containing composition A according to the invention at different concentrations for 96 hours. Epidermal growth factor (EGF, 20 ng/ml) was included as positive control and NHDF without pretreatment in H2O2 as non-aged control (Control). Cell viability was quantified using the MTT assay.

For Epidermal growth factor [EGF], the “increase in cell viability compared to the aged control” value was “+22.9%”.
